{"source": "patent US11919906B2", "about": "“Crystal form of ACP-196 and method of treatment thereof” (Hangzhou SoliPharma Co., Ltd., priority 2016, dated 2024)", "key": {"[1]": {"experiment": "Isothermal sorption (dynamic vapor sorption), hygroscopicity", "assay_type": "physicochemical", "details": "between 30 to 80% RH", "method": "Dynamic vapor sorption data and isothermal sorption data were collected on TA Instruments Q5000 TGA. Method: A sample of 1 to 10 mg was placed in a platinum pan; the weight change of the sample during the change in relative humidity from 0% to 80% to 0% was measured."}, "[2]": {"experiment": "Thermogravimetric analysis (TGA), weight loss / residual solvents", "assay_type": "physicochemical", "details": "before 150° C.", "method": "Thermogravimetric analysis data were collected on TA instruments Q500 TGA. Method: A sample of 5 to 15 mg was placed in a platinum pan, using High Resolution™, the sample was heated from room temperature to 350° C. at a heating rate of 10° C./min under the protection of dry nitrogen purge at 40 mL/min."}}, "data": [{"compound": "CC#CC(=O)N1CCC[C@H]1c1nc(-c2ccc(C(=O)Nc3ccccn3)cc2)c2c(N)nccn12", "note": "[ACP-196 Form 1]", "values": [{"measurement": "weight change (isothermal sorption plot)", "setting": "[1]", "value": 0.8, "unit": "%"}]}, {"compound": "CC#CC(=O)N1CCC[C@H]1c1nc(-c2ccc(C(=O)Nc3ccccn3)cc2)c2c(N)nccn12", "note": "[amorphous ACP-196]", "values": [{"measurement": "weight change (isothermal sorption plot)", "setting": "[1]", "value": 5.5, "unit": "%"}, {"measurement": "weight loss (TGA)", "setting": "[2]", "value": 11.1, "unit": "%"}]}]}
